Experimental data from ChEMBL document CHEMBL5537140, “Discovery and exploration of novel somatostatin receptor subtype 5 (SSTR5) antagonists for the treatment of cholesterol gallstones” (Eur J Med Chem, 2024).
pIC50: −log10 of the molar value. Activity calls are given as the source filed them. The rule behind the calls is not given here.

Legend:
[1] = target: T1, Somatostatin receptor type 5 (Mus musculus, UniProt O08858); assay: Antagonist activity at N-terminal HA-tagged mouse SSTR5 expressed in CHO cells assessed as change in intracellular […] level preincubated with agonist for 10 mins followed by compound addition by CRE-driven luciferase reporter based microplate reader; type: functional, cell-based
T1 sequence (O08858 whole entry): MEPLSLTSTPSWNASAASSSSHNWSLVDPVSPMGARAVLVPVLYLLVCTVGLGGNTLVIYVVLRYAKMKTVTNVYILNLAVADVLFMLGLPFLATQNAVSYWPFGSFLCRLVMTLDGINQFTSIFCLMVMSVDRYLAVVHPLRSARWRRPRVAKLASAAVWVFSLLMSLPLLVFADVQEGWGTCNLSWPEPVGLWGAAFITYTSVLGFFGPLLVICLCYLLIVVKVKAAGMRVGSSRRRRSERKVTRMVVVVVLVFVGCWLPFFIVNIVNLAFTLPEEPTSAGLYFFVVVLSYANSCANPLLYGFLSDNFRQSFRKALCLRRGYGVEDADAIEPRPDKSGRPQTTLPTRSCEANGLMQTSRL

CHO = assay: Cytotoxicity against CHO cells upto 10 uM; conditions: chinese hamster
[2] = target: Somatostatin receptor type 5 (Homo sapiens, UniProt P35346); assay: Antagonist activity at N-terminal HA-tagged human SSTR5 expressed in CHO cells assessed as change in intracellular […] level preincubated with agonist for 10 mins followed by compound addition by CRE-driven luciferase reporter based microplate reader; type: functional, cell-based
[3] = target: Voltage-gated inwardly rectifying potassium channel KCNH2 (Homo sapiens, UniProt Q12809); assay: Inhibition of hERG expressed in CHO cells by Qpatch automatic patch clamp method
[4] = Metabolic stability in mouse liver microsomes assessed as parent compound remaining at 1 uM incubated for 30 mins in presence of NADPH by LC-MS/MS analysis; type: ADME, Microsome; conditions: read-out: Stability
Mus musculus [5] = assay: Protection against lithogenic diet induced cholesterol gallstone C57BL/6J mouse model assessed as reduction in cholesterol gallstone formation at 60 mg/kg, po administered once daily for 14 days; type: functional, organism-based; conditions: time 14.0 day
[6] = Half-life in C57BL/6J mouse at 3 mg/kg, po measured at 0.25 to 24 hrs by LC-MS/MS analysis; type: ADME, organism-based; conditions: in vivo, time 0.25-24 hrs
[7] = Observed AUC (0 to infinity) in C57BL/6J mouse at 1 mg/kg, iv measured at 0.05 to 24 hrs by LC-MS/MS analysis; type: ADME, organism-based; conditions: in vivo, time 0.05-24 hrs
[8] = Observed AUC (0 to infinity) in C57BL/6J mouse at 3 mg/kg, po measured at 0.25 to 24 hrs by LC-MS/MS analysis; type: ADME, organism-based; conditions: in vivo, time 0.25-24 hrs
[9] = Oral bioavailability in C57BL/6J mouse at 3 mg/kg measured at 0.25 to 24 hrs by LC-MS/MS analysis; type: ADME, organism-based; conditions: in vivo, time 0.25-24 hrs
[10] = Half-life in C57BL/6J mouse at 1 mg/kg, iv measured at 0.05 to 24 hrs by LC-MS/MS analysis; type: ADME, organism-based; conditions: in vivo, time 0.05-24 hrs
[11] = Observed clearance in C57BL/6J mouse at 1 mg/kg, iv measured at 0.05 to 24 hrs by LC-MS/MS analysis; type: ADME, organism-based; conditions: in vivo, time 0.05-24 hrs
Mus musculus [12] = assay: Induction of gallbladder emptying in C57BL/6J mouse assessed as reduction in gallbladder weight at 10 mg/kg, po preadministered with compound for 30 mins followed by egg yolk administration and measured after 15 mins; type: functional, organism-based; conditions: time 45.0 min
[13] = Metabolic stability in human liver microsomes assessed as parent compound remaining at 1 uM incubated for 30 mins in presence of NADPH by LC-MS/MS analysis; type: ADME, Microsome; conditions: read-out: Stability
Mus musculus [14] = assay: Protection against lithogenic diet induced cholesterol gallstone C57BL/6J mouse model assessed as reduction in large gallstone precipitate at 1 to 3 mg/kg, po administered once daily for 14 days; type: functional, organism-based; conditions: dose 1-3 mg/kg, time 14.0 day
Mus musculus [15] = assay: Protection against lithogenic diet induced cholesterol gallstone C57BL/6J mouse model assessed as reduction in large gallstone precipitate at 60 mg/kg, po administered once daily for 14 days; type: functional, organism-based; conditions: time 14.0 day
[16] = Observed volume of distribution at steady state in C57BL/6J mouse at 1 mg/kg, iv measured at 0.05 to 24 hrs by LC-MS/MS analysis; type: ADME, organism-based; conditions: in vivo, time 0.05-24 hrs, read-out: Vdss
Mus musculus [17] = assay: Protection against lithogenic diet induced cholesterol gallstone C57BL/6J mouse model assessed as reduction in dense-cored gallstone precipitate at 1 to 3 mg/kg, po administered once daily for 14 days; type: functional, organism-based; conditions: dose 1-3 mg/kg, time 14.0 day
[18] = Cytotoxicity against CHO cells assessed as cellular ATP at 10 uM relative to control; type: toxicity, cell-based, Cricetulus griseus; conditions: chinese hamster, read-out: Activity
[19] = Tmax in C57BL/6J mouse at 3 mg/kg, po measured at 0.25 to 24 hrs by LC-MS/MS analysis; type: ADME, organism-based; conditions: in vivo, time 0.25-24 hrs
Mus musculus [20] = assay: Protection against lithogenic diet induced cholesterol gallstone C57BL/6J mouse model assessed as reduction in dense-cored gallstone precipitate at 60 mg/kg, po administered once daily for 14 days; type: functional, organism-based; conditions: time 14.0 day
[21] = Cmax in C57BL/6J mouse at 3 mg/kg, po measured at 0.25 to 24 hrs by LC-MS/MS analysis; type: ADME, organism-based; conditions: in vivo, time 0.25-24 hrs
Mus musculus [22] = assay: Protection against lithogenic diet induced cholesterol gallstone C57BL/6J mouse model assessed as reduction in cholesterol gallstone formation at 1 to 3 mg/kg, po administered once daily for 14 days; type: functional, organism-based; conditions: dose 1-3 mg/kg, time 14.0 day

Somatostatin receptor type 5 (Homo sapiens, UniProt P35346), sequence (P35346 whole entry): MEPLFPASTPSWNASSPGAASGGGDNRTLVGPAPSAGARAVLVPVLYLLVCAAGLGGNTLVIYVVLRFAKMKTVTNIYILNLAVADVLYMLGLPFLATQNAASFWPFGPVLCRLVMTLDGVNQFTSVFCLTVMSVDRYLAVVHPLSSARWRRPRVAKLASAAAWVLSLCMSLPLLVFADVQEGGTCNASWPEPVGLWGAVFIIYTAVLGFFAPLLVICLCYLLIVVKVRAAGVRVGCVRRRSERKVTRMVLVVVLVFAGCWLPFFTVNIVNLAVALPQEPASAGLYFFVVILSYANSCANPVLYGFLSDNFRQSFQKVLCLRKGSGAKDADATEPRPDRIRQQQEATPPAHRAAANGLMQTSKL
Voltage-gated inwardly rectifying potassium channel KCNH2, sequence (Q12809 whole entry): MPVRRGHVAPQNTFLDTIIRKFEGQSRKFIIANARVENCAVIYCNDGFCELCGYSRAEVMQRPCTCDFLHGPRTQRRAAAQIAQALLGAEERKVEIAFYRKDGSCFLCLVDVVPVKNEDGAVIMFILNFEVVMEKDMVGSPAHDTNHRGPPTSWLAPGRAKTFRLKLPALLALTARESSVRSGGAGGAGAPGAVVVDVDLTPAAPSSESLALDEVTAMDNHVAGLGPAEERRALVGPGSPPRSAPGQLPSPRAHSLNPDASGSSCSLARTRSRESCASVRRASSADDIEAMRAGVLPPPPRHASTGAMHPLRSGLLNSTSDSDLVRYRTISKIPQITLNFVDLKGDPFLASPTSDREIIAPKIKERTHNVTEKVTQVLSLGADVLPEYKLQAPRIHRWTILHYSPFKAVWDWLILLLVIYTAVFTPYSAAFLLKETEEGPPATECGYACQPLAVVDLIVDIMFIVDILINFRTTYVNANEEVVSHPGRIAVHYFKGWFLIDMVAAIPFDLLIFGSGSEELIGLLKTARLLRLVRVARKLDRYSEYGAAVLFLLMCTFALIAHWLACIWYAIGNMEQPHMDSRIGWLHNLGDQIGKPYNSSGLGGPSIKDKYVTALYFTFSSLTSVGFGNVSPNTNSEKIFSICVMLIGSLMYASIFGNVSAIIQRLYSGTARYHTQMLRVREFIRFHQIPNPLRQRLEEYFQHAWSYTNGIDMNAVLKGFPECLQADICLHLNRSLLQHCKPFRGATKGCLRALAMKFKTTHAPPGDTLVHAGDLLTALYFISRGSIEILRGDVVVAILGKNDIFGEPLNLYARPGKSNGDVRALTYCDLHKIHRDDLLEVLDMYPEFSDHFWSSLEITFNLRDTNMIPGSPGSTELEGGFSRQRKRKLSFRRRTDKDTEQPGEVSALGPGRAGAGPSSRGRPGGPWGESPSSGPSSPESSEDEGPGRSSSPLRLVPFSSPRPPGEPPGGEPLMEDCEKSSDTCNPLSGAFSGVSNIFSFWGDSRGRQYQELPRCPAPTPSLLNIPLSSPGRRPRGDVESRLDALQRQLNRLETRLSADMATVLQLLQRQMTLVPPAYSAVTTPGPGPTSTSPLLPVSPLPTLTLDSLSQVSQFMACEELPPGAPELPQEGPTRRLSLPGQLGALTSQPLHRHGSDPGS

CCOc1cc(CN2CCC(F)(CNc3ccc(C(=O)O)cc3C)CC2)cc(OCC)c1-c1ccc(F)cc1
pIC50 [1]: 7.60 | Activity (CHO): Non-Toxic

CCOc1cc(CN2CCC(F)(CNc3ccc(C(=O)O)cc3OC)CC2)cc(OCC)c1-c1ccc(F)cc1
pIC50 [1]: 7.69 | Activity (CHO): Non-Toxic

CCOc1cc(CN2CCC(C)(C(=O)Nc3ccc(C(=O)O)cc3)CC2)cc(OCC)c1-c1ccc(F)cc1
pIC50 [1]: 4.91 | Activity (CHO): Non-Toxic

CCOc1cc(CN2CC(COc3ccc(C(=O)O)cc3)C2)cc(OCC)c1-c1ccc(F)cc1
pIC50 [1]: 6.40 | Activity (CHO): Non-Toxic

CCOc1cc(CN2CCC(O)(c3ccc(Cl)cc3)CC2)cc(OCC)c1-c1ccc(F)cc1
pIC50 [1]: 4.96 | Activity (CHO): Non-Toxic

CCOc1cc(CN2CCC(C)(CNc3ccc(C(=O)O)cc3)CC2)cc(OCC)c1-c1ccc(F)cc1
pIC50 [1]: 6.89 | Activity (CHO): Non-Toxic

CCOc1cc(CN2CCC(F)(CNc3ccc(C(=O)O)cc3)CC2)cc(OCC)c1-c1ccc(F)cc1
pIC50 [2]: 7.56 | pIC50 [3]: < 4.70 | pIC50 [1]: 7.86 | Activity (CHO): Non-Toxic | remaining at 0.5 h, 1 µM [4]: 81.4%

CCOc1cc(CN2CCC(O)(Cc3ccc(C(=O)O)cc3)CC2)cc(OCC)c1-c1ccc(F)cc1
pIC50 [1]: 6.75 | Activity (CHO): Non-Toxic

CCOc1cc(CN2CCC(F)(CNc3ccc(C(=O)O)c(Cl)c3)CC2)cc(OCC)c1-c1ccc(F)cc1
pIC50 [1]: 7.37 | Activity (CHO): Non-Toxic

CN(C)C(=O)C(CCN1CCC(O)(c2ccc(Cl)cc2)CC1)(c1ccccc1)c1ccccc1 [LOPERAMIDE]
pIC50 [2]: 4.48 | pIC50 [1]: 4.20 | Activity (CHO): Non-Toxic

CCOc1cc(CN2CCC(O)(CNc3ccc(C(=O)O)cc3)CC2)cc(OCC)c1-c1ccc(F)cc1
pIC50 [1]: 7.28 | Activity (CHO): Non-Toxic

CCOc1cc(CN2CCC(F)(C(=O)Nc3ccc(C(=O)O)cc3)CC2)cc(OCC)c1-c1ccc(F)cc1
pIC50 [1]: 5.59 | Activity (CHO): Non-Toxic

CCOc1cc(CN2CCC(F)(CNc3ccc(C(=O)O)c(C)c3)CC2)cc(OCC)c1-c1ccc(F)cc1
pIC50 [1]: 7.01 | Activity (CHO): Non-Toxic

C[C@H](CCC(=O)O)[C@H]1CC[C@H]2[C@@H]3[C@@H](O)C[C@@H]4C[C@H](O)CC[C@]4(C)[C@H]3CC[C@]12C
Activity (Mus musculus [5]): Active

CCOc1cc(CN2CCC(Oc3ccc(C(=O)O)cc3)CC2)cc(OCC)c1-c1ccc(F)cc1
pIC50 [1]: 7.35 | Activity (CHO): Non-Toxic

CCOc1cc(CN2CCC(F)(CNc3ccc(O)cc3)CC2)cc(OCC)c1-c1ccc(F)cc1
pIC50 [1]: 5.89 | Activity (CHO): Non-Toxic

CCOc1cc(CN2CCC(O)(C(=O)Nc3ccc(C(=O)O)cc3)CC2)cc(OCC)c1-c1ccc(F)cc1
pIC50 [2]: 4.64 | pIC50 [1]: 4.83 | Activity (CHO): Non-Toxic

CCOc1cc(CN2CCC(F)(CNc3ccc(C(=O)O)cc3Cl)CC2)cc(OCC)c1-c1ccc(F)cc1
pIC50 [1]: 6.88 | Activity (CHO): Non-Toxic

CCOc1cc(CN2CCC(F)(COc3ccc(C(=O)O)cc3)CC2)cc(OCC)c1-c1ccc(F)cc1
pIC50 [1]: 7.83 | Activity (CHO): Non-Toxic | remaining at 0.5 h, 1 µM [4]: 61%

CCOc1cc(CN2CC(Nc3ccc(C(=O)O)cc3)C2)cc(OCC)c1-c1ccc(F)cc1
pIC50 [2]: 6.00 | pIC50 [1]: 6.74 | Activity (CHO): Non-Toxic

CCOc1cc(CN2CCC(CNc3ccc(C(=O)O)cc3)CC2)cc(OCC)c1-c1ccc(F)cc1
pIC50 [1]: 7.04 | Activity (CHO): Non-Toxic

CCOc1cc(CN2CCC(F)(CNc3ccc(C(=O)O)c(OC)c3)CC2)cc(OCC)c1-c1ccc(F)cc1
half-life [6]: 3.58 h | AUC(0-inf) [7]: 562 ng·h/mL | AUC(0-inf) [8]: 494 ng·h/mL | bioavailability [9]: 29.3% | half-life [10]: 2.45 h | pIC50 [2]: 8.55 | pIC50 [3]: < 4.70 | clearance [11]: 30.5 mL/min/kg | Activity (Mus musculus [12]): Active | pIC50 [1]: 8.85 | remaining at 0.5 h, 1 µM [13]: 92.5% | Activity (CHO): Non-Toxic | Activity (Mus musculus [14]): Active | Activity (Mus musculus [15]): Active | Vd [16]: 2.6 L/kg | remaining at 0.5 h, 1 µM [4]: 59.8% | Activity (Mus musculus [17]): Active | viability at 10 µM [18]: 92% | Tmax [19]: 0.33 h | Activity (Mus musculus [20]): Active | Cmax [21]: 208 ng/mL | Activity (Mus musculus [22]): Active

CCOc1cc(CN2CCC(C)(COc3ccc(C(=O)O)cc3)CC2)cc(OCC)c1-c1ccc(F)cc1
pIC50 [2]: 5.47 | pIC50 [1]: 5.73 | Activity (CHO): Non-Toxic

CCOc1cc(CN2CCC(C(=O)Nc3ccc(C(=O)O)cc3)CC2)cc(OCC)c1-c1ccc(F)cc1
pIC50 [1]: 6.07 | Activity (CHO): Non-Toxic

CCOc1cc(CN2CCC(F)(CNc3ccc(N)cc3)CC2)cc(OCC)c1-c1ccc(F)cc1
pIC50 [1]: 5.75 | Activity (CHO): Non-Toxic

CCOc1cc(CN2CCC(O)(COc3ccc(C(=O)O)cc3)CC2)cc(OCC)c1-c1ccc(F)cc1
pIC50 [1]: 7.29 | Activity (CHO): Non-Toxic

CCOc1cc(CN2CC(CNc3ccc(C(=O)O)cc3)C2)cc(OCC)c1-c1ccc(F)cc1
pIC50 [1]: 6.80 | Activity (CHO): Non-Toxic

CCOc1cc(CN2CCC(COc3ccc(C(=O)O)cc3)CC2)cc(OCC)c1-c1ccc(F)cc1
pIC50 [1]: 7.94
